Measurements from patent publication US20090325894A1 (priority 2007, published 2009).
Where two headings read alike, the source gives them in different places.

Columns and labels:
LoVo cells = test: Cell growth inhibition assay (MTS assay), LoVo cells; assay type: cell-based, Human; conditions: 48 hours, RPMI1640-SIT serum-free medium, read-out: Half maximal inhibitory concentration (IC50) LoVo cells
Method: (§1) Cell Growth Inhibition Assay (MTS Assay)
(§2) 1. Cell Strain and Reagents
LoVo: Human colorectal adenocarcinoma cell line (ATCC catalog # CCL-229);
(§3) SIT solution (SIGMA), RPMI 1640 culture solution, Phosphate buffer, Dimethyl sulfoxide (DMSO), MTS solution (Promega), 96-well cell culture plate;
(§4) Anti-tumor compounds: synthesized by Tianjin Hemay Bio-tech Co., Ltd.;
(§5) Positive control drugs: doxorubicin (Zhejiang Hisun Pharmaceutical Co., Ltd).
(§6) The above-mentioned cells were cultured for several days (RPMI 1640, 10% of bovine serum), collected and suspended in RPMI1640-SIT serum-free medium, placed into a 96-well cell culture plate with each well containing about 20,000 cells/100 μL. The cells were cultured overnight at 5% CO2 and 37° C. The next day, representative antitumor compounds (between 3 and 10 mM) were dissolved in dimethyl sulphoxide (DMSO) to obtain a mother solution. Doxorubicin was used as positive control, DMSO was used as negative control.
(§7) The mother solution was diluted and added to the 96 well cell culture plate, culture for 48 hours at 5% CO2 and 37° C. Subsequently, 20 μL of MTS solution was added to each well of the 96 well cell culture plate and cultured for another 2 to 4 hours at 5% CO2 and 37° C. Absorbance was read at 490 nm wavelength, and converted into cell survival rate.
(§8) Calculation of Percent Inhibition:
(§9) %inhibition=100−[reading of absorbance(compound)/reading of absorbance(blank)]×100
(§10) For each concentration, there two measurements were taken and the average value was recorded. The half maximal inhibitory concentration (IC50) of cell growth was calculated by cell growth inhibition curve.

HeLa cells = test: Cell growth inhibition assay (MTS assay), HeLa cells; assay type: cell-based, Human; conditions: 48 hours, RPMI1640-SIT serum-free medium, read-out: Half maximal inhibitory concentration (IC50) HeLa cells
Method: as §1, §2
HeLa: Human adenocarcinoma cell line (ATCC catalog # CCL-2);
as §3, §4, §5, §6, §7, §8, §9, §10

SW620 cells = test: Cell growth inhibition assay (MTS assay), SW620 cells; assay type: cell-based, Human; conditions: RPMI1640-SIT serum-free medium, read-out: Half maximal inhibitory concentration (IC50) SW620 cells
Method: as §1, §2
SW620: Human colorectal adenocarcinoma cell line;
as §3, §4, §5, §6, §7, §8, §9, §10

Solubility in water = assay type: physicochemical

| IC50 (LoVo cells) [µM] | Compound | also measured |
| --- | --- | --- |
| 50 | 4-(2-oleoylaminoethylamino)-4-oxo-butanoyl-L-Alanyl-L-Valyl-Doxorubicin bissuccinate [Example 79] |  |
| 2.5 | CCCCCCCC/C=C\CCCCCCCC(=O)NCCOCCOCCOCCOCCOCCOCC(=O)N[C@@H](C)C(=O)N[C@H](C(=O)NC1CC(OC2CC(O)(C(=O)COC(=O)CCC(=O)O)Cc3c(O)c4c(c(O)c32)C(=O)c2c(OC)cccc2C4=O)OC(C)C1OC(=O)CCC(=O)O)C(C)C (stereo partly drawn) [Example 86, 2-(2-(2-(2-(2-(2-(2-oleoylamino-ethoxy)ethoxy)ethoxy)ethoxy)ethoxy)ethoxy)actyl-L-Alanyl-L-Valyl-Doxorubicin bissuccinate] |  |
| > 100 | (4-(2-oleoylaminoethylamino)-4-oxo-butanoyl)-L-Alanyl-L-Valyl-Doxorubicin [Example 57] |  |
| 2 | Bissodium 4-(2-(2-oleoylaminoethoxy)ethylamino)-4-oxo-butanoyl-L-Alanyl-L-Valyl-Doxorubicin bissuccinate [Example 112] | IC50 (HeLa cells): 3 µM; IC50 (SW620 cells; 48 hours): 1.5 µM |
| 8 | Oleoyl-Glycyl-L-Alanyl-L-Valyl-Doxorubicin bissuccinate [Example 74] |  |
| 20 | Oleoyl-L-Alanyl-L-Valyl-Doxorubicin bissuccinate [Example 70] | IC50 (HeLa cells): > 100 µM |
| 30 | Oleoyl-L-Alanyl-L-Vayl-Doxorubicin maleate [Example 98] |  |

The remaining lines, values behind:

| Compound | IC50 (LoVo cells) [µM] | also measured |
| --- | --- | --- |
| 2-(2-(2-(2-(2-(2-(2-oleoylaminoethoxy)ethoxy)ethoxy)ethoxy)ethoxy)ethoxy)acetyl-L-Alanyl-L-Valyl-Doxorubicin [Example 68] | 30 |  |
| 4-(2-(2-oleoylaminoethoxy)ethylamino)-4-oxo-butanoyl-L-Alanyl-L-Valyl-Doxorubicin bissuccinate [Example 77] | 12 | IC50 (HeLa cells): 75 µM |
| COc1cccc2c1C(=O)c1c(O)c3c(c(O)c1C2=O)C[C@@](O)(C(=O)CO)C[C@@H]3O[C@H]1C[C@H](N)[C@H](O)[C@H](C)O1 [Doxorubicin, doxorubicin, reference compound] |  | IC50 (HeLa cells; Homo sapiens, HeLa): 0.3 µM; IC50 (SW620 cells; Homo sapiens, SW-620, 48 hours): 0.65 µM; IC50 (LoVo cells; Homo sapiens, LoVo): 2.6 µM |
| COc1cccc2c1C(=O)c1c(O)c3c(c(O)c1C2=O)CC(O)(C(=O)CO)CC3OC1CC(NC(=O)[C@@H](NC(=O)[C@H](C)NC(=O)CCC(=O)NCCNC(=O)CCC(=O)NCCNC(=O)OC(C)(C)C)C(C)C)C(O)C(C)O1 (stereo partly drawn) [Example 58, 4-(2-(4-(2-tert-butoxycarbonyl-aminoethylamino)-4-oxo-butanoylamino)ethylamino)-4-oxo-butanoyl-L-Alanyl-L-Valyl-Doxorubicin] | 75 |  |
| CCCCCCCCC=CCCCCCCCC(=O)NCCNC(=O)CCC(=O)NCCNC(=O)CCC(=O)NC(C)C(=O)NC(C(=O)NC1CC(OC2CC(O)(C(=O)CO)Cc3c(O)c4c(c(O)c32)C(=O)c2c(OC)cccc2C4=O)OC(C)C1O)C(C)C [Example 59, 4-(2-(4-(2-oleoylaminoethylamino)-4-oxo-butanoylamino)ethylamino)-4-oxo-butanoyl-L-Alanyl-L-Valyl-Doxorubicin] | > 100 |  |
| (4-(2-(2-oleoylaminoethoxy)ethoxy)-4-oxo-butanoyl)-L-Alanyl-L-Valyl-Doxorubicin [Example 69] | 25 | IC50 (HeLa cells): > 100 µM; IC50 (SW620 cells; 48 hours): 12 µM |
| (4-(2-(2-oleoylaminoethoxy)ethylamino)-4-oxo-butanoyl)-L-Alanyl-L-Valyl-Doxorubicin [Example 54] | 25 |  |
| Bissodium linoleic acyl-L-Alanyl-L-Valyl-Doxorubicin bissuccinate [Example 108] | 15 |  |
| Bissodium linolenic acyl-L-Alanyl-L-Valyl-Doxorubicin bissuccinate [Example 109] | 12 |  |
| Bissodium oleoyl-L-Alanyl-L-Valyl-Doxorubicin bis(2-carboxyl-3,4,5,6-tetrafluorobenzoate) [Example 119] |  | solubility in water (Solubility in water): more than 1 mg/mL |
| DHA acyl-L-Alanyl-L-Valyl-Doxorubicin bissuccinate [Example 82] | 25 |  |
| Linoleic acyl-L-Alanyl-L-Valyl-Doxorubicin bissuccinate [Example 80] | 20 | IC50 (HeLa cells): > 100 µM |
| Linolenic acyl-L-Alanyl-L-Valyl-Doxorubicin bissuccinate [Example 81] | 18 |  |
| Oleoyl-L-Alanyl-L-Valyl-Daunorubicin bissuccinate [Example 76] | 10 |  |
| Oleoyl-L-Alanyl-L-Valyl-Doxorubicin bis(2-carboxyl-3,4,5,6-tetrafluorobenzoate) [Example 97] | 10 |  |
| Oleoyl-L-Alanyl-L-Valyl-Epirubicin bissuccinate [Example 75] | 0.8 |  |
| Trisodium 4-(2-(2-oleoylaminoethoxy)ethylamino)-4-oxo-butanoyl-L-Alanyl-L-Valyl-Doxorubicin trisuccinate [Example 121] | 10 | IC50 (HeLa cells): 5 µM |
